Measured values reported in PubChem BioAssay (NCI).
Several values for one entry are separate records, joined by “and”; a condition that tells them apart may be missing. Identical values can stand only once.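 Assay format: 96-well plates, 48-hour exposure. Here, GI50 denotes the concentration required for 50% inhibition of growth. TGI: total growth inhibition.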 Where a SMILES comes first, the peptide text is derived from it. Bridges are numbered along the chain shown (N, C = ends). [ ]: non-standard residue; d: D form. The star is where a group is joined. Phe(3,5-F2) = N[C@@H](Cc1cc(F)cc(F)c1)C(=O)O; Pro(4R-Me) = C[C@H]1CN[C@H](C(=O)O)C1; aThr = C[C@H](O)[C@H](N)C(=O)O; Pip = O=C(O)[C@@H]1CCCCN1; X7 = CCC/C=C/C=C/C(=O)*

test system: MDA-MB-468 breast; experiment: inhibition of tumour cell growth, NCI panel, 48 h

`COc1ccc(-c2nc(Nc3ccc(F)cc3)nc(Nc3ccc4c(c3)nc(C)n4Cc3ccccc3)n2)cc1` and `O=C(NC(=S)Nc1ccc(-c2nc3ccccc3[nH]2)cc1)c1ccc2ccccc2c1` are within 1.5-fold of each other in GI50: 2270 nM for the first, 2340 nM for the second.

First: CC(=O)N[C@@H](Cc1ccc(OP(=O)(O)O)cc1)C(=O)N[C@H]1CCC(=O)N2CCC[C@@H](C(=O)NCc3cccc4ccccc34)N2C1=O
Second: CCC/C=C/C=C/C(=O)N[C@@H](Cc1cc(F)cc(F)c1)C(=O)N[C@@H]1C(=O)N2CCC[C@H]2C(=O)N2CCCC[C@H]2C(=O)N[C@@H](C)C(=O)N2C[C@H](C)C[C@H]2C(=O)O[C@H]1C (X7-[Phe(3,5-F2)][aThr]P[Pip]A[Pro(4R-Me)]; ester 2-C)
The GI50 of the first is higher: over 25000 nM for the first, 271 nM for the second.

Going from `O=C(NCCNc1nccc(-c2c(-c3ccc(F)cc3)nc3sccn23)n1)Nc1cccc(C(F)(F)F)c1` to `COc1cc2cc(Oc3ccc(NC(=O)Nc4ccc(F)c(C(F)(F)F)c4)cc3)c(C)nc2cc1OCCN1CCOCC1`, the GI50 falls from 2140 nM to 451 nM (4.7-fold).

`COc1ccc(/C=C/C(=O)c2ccc(B(O)O)cc2)cc1O` and `O=C(/C=C/c1cccnc1)c1ccccc1` are within 1.5-fold of each other in GI50: 6230 nM for the first, 8220 nM for the second.

Compared with `CC(C)[C@]12O[C@H]1[C@@H]1O[C@]13[C@]1(O[C@H]1C[C@H]1C4=C(CC[C@@]13C)C(=O)OC4)[C@@H]2OC(=O)OC(C)(C)C`, `CC(C)c1ccc2c(c1)CCC1C(C)(CN)CCCC21C` (stereo unspecified) is 97-fold higher in GI50: 14.7 nM for the first, 1430 nM for the second.

Going from `Cc1cc(C)c2c(=O)cc(-c3ccccc3)[nH]c2c1` to `CCOC(=O)Nc1ccc2c3c(cccc13)-c1ccccc1-2`, the GI50 falls from 3790 nM to 1370 nM (2.8-fold).

Going from `COC(=O)Nc1nc2ccc(C(=O)C3CC3)cc2[nH]1` to `O=C(CSc1nc2ccc([N+](=O)[O-])cc2[nH]1)Nc1ccc([N+](=O)[O-])cc1`, the GI50 rises from 247 nM to 1080 nM (4.4-fold).

Compared with `COc1ccc2c(c1)OC(N)=C(C#N)C2c1ccc(F)c(F)c1` (stereo unspecified), `Nc1nc(N)c2cc(Sc3ccc(Cl)cc3)ccc2n1` is 5.2-fold higher in GI50: 222 nM for the first, 1150 nM for the second.

Going from `Cc1cccc2c1NC(=O)[C@@H](NC(=O)[C@H](CCC(F)(F)F)[C@H](CCC(F)(F)F)C(N)=O)N=C2c1cccc(F)c1` to `NCCSC1(O)C(=O)c2ccccc2-c2ccccc21` (stereo unspecified), the GI50 falls from 18500 nM to 615 nM (30-fold).

First: O=C1/C(=C\c2ccc(Cl)cc2)CN(C(=O)c2ccccc2)C/C1=C\c1ccc(Cl)cc1
Second: O=C1NC(=N[C@@H]2C[C@H]2c2ccccc2)S/C1=C\c1ccc2ncccc2c1
The GI50 of the first is 2.1-fold higher: 1860 nM for the first, 872 nM for the second.

Going from `NNC(=S)N/N=C/c1ccccn1` to `NS(=O)(=O)c1ccc(N=Nc2c(O)[nH]c3cccc(CCc4ccncc4)c23)cc1`, the GI50 rises from 1940 nM to over 25000 nM.

Compared with `N#C/C(=C\c1ccc([N+](=O)[O-])cc1)n1nnc2cc(F)c(F)cc21`, `CN1CCN(Cc2ccc(NC(=O)c3cncc(C#Cc4cnc5ccc(OCC6COC6)nn45)c3)cc2C(F)(F)F)CC1` is 7.7-fold lower in GI50: 1510 nM for the first, 196 nM for the second.

`ClCCN(CCCl)c1ccc(OCc2ccccc2)cc1` and `C#CCN(C)CCCOc1ccc(NCc2ccc(C(=O)NO)cc2)cc1Cl` are within 1.5-fold of each other in GI50: 1450 nM for the first, 1700 nM for the second.

Going from `CN1CCN(C(=O)OCc2nc3c(N4CCOCC4)nc(-c4ccccc4)nc3n2C)CC1` to `CC[n+]1c(/C=C/c2ccc(N3CCCC3)cc2)cccc1/C=C/c1ccc(N2CCCC2)cc1`, the GI50 falls from 558 nM to 42.3 nM (13-fold).

`COc1c(O)cc2c(c1CC=C(C)C)OC(=O)c1c(cc(O)c(CC=C(C)C)c1O)O2` and `Oc1c(CCl)cc(Cl)cc1Cc1cc(Cl)cc(Cc2cc(Cl)cc(CCl)c2O)c1O` are within 1.5-fold of each other in GI50: 4190 nM for the first, 3280 nM for the second.

Going from `COc1ncnn2ccc(-c3cnc4nc(C)n(Cc5nnc(C(C)F)o5)c4c3)c12` (stereo unspecified) to `CO[C@@H]1[C@H](N(C)C(=O)c2ccccc2)C[C@@H]2O[C@]1(C)n1c3ccccc3c3c4c(c5c6ccccc6n2c5c31)C(=O)NC4=O`, the GI50 rises from 51 nM to 335 nM (6.6-fold).

Compared with `COC(=O)CC12CC(NC(=O)c3csc([C@@H](C[C@H](C(C)C)N(C)C(=O)[C@@H](NC(=O)[C@H]4CCCCN4C)C(C)C)OC(C)=O)n3)(C1)C2`, `Nc1n[nH]c2ccc([C@H]3[C@@H]4C5CCC(C5)[C@@H]4c4c(ccc5[nH]ncc45)N3S(=O)(=O)C3CC3)cc12` (stereo partly specified) is 31-fold higher in GI50: 4.38 nM for the first, 137 nM for the second.

Compared with `CCN1C2=C(SC(=S)C1=C1SC(C(=O)c3ccccc3)=C(C(=O)c3ccccc3)S1)SC(=Nc1ccccc1)C2=O`, `Cc1ccc([I+]c2ccc(C)cc2)cc1` is lower in GI50: over 50400 nM for the first, 264 nM for the second.

`COc1ccc(-c2nc(Nc3ccc(F)cc3)nc(Nc3ccc4c(c3)nc(C)n4Cc3ccccc3)n2)cc1` and `O=C(NC(=S)Nc1ccc(-c2nc3ccccc3[nH]2)cc1)c1ccc2ccccc2c1` are within 1.5-fold of each other in TGI: 7220 nM for the first, 7720 nM for the second.

First: CC(=O)N[C@@H](Cc1ccc(OP(=O)(O)O)cc1)C(=O)N[C@H]1CCC(=O)N2CCC[C@@H](C(=O)NCc3cccc4ccccc34)N2C1=O
Second: CCC/C=C/C=C/C(=O)N[C@@H](Cc1cc(F)cc(F)c1)C(=O)N[C@@H]1C(=O)N2CCC[C@H]2C(=O)N2CCCC[C@H]2C(=O)N[C@@H](C)C(=O)N2C[C@H](C)C[C@H]2C(=O)O[C@H]1C (X7-[Phe(3,5-F2)][aThr]P[Pip]A[Pro(4R-Me)]; ester 2-C)
The TGI of the first is higher: over 25000 nM for the first, 1030 nM for the second.

`O=C(NCCNc1nccc(-c2c(-c3ccc(F)cc3)nc3sccn23)n1)Nc1cccc(C(F)(F)F)c1` and `COc1cc2cc(Oc3ccc(NC(=O)Nc4ccc(F)c(C(F)(F)F)c4)cc3)c(C)nc2cc1OCCN1CCOCC1` are within 1.5-fold of each other in TGI: 7460 nM for the first, 10400 nM for the second.

`COc1ccc(/C=C/C(=O)c2ccc(B(O)O)cc2)cc1O` and `O=C(/C=C/c1cccnc1)c1ccccc1` are within 1.5-fold of each other in TGI: 18400 nM for the first, 22000 nM for the second.

First: CC(C)[C@]12O[C@H]1[C@@H]1O[C@]13[C@]1(O[C@H]1C[C@H]1C4=C(CC[C@@]13C)C(=O)OC4)[C@@H]2OC(=O)OC(C)(C)C
Second: CC(C)c1ccc2c(c1)CCC1C(C)(CN)CCCC21C (stereo unspecified)
The TGI of the first is 76-fold lower: 36.1 nM for the first, 2760 nM for the second.

Going from `Cc1cc(C)c2c(=O)cc(-c3ccccc3)[nH]c2c1` to `CCOC(=O)Nc1ccc2c3c(cccc13)-c1ccccc1-2`, the TGI falls from 25500 nM to 5210 nM (4.9-fold).

Going from `COC(=O)Nc1nc2ccc(C(=O)C3CC3)cc2[nH]1` to `O=C(CSc1nc2ccc([N+](=O)[O-])cc2[nH]1)Nc1ccc([N+](=O)[O-])cc1`, the TGI rises from 1480 nM to 5050 nM (3.4-fold).

`COc1ccc2c(c1)OC(N)=C(C#N)C2c1ccc(F)c(F)c1` (stereo unspecified) and `Nc1nc(N)c2cc(Sc3ccc(Cl)cc3)ccc2n1` are within 1.5-fold of each other in TGI: 3560 nM for the first, 2710 nM for the second.

Going from `Cc1cccc2c1NC(=O)[C@@H](NC(=O)[C@H](CCC(F)(F)F)[C@H](CCC(F)(F)F)C(N)=O)N=C2c1cccc(F)c1` to `NCCSC1(O)C(=O)c2ccccc2-c2ccccc21` (stereo unspecified), the TGI falls from over 100000 nM to 2120 nM.

`O=C1/C(=C\c2ccc(Cl)cc2)CN(C(=O)c2ccccc2)C/C1=C\c1ccc(Cl)cc1` and `O=C1NC(=N[C@@H]2C[C@H]2c2ccccc2)S/C1=C\c1ccc2ncccc2c1` are within 1.5-fold of each other in TGI: 4280 nM for the first, 5850 nM for the second.

Going from `NNC(=S)N/N=C/c1ccccn1` to `NS(=O)(=O)c1ccc(N=Nc2c(O)[nH]c3cccc(CCc4ccncc4)c23)cc1`, the TGI rises from 5590 nM to over 25000 nM.

Compared with `N#C/C(=C\c1ccc([N+](=O)[O-])cc1)n1nnc2cc(F)c(F)cc21`, `CN1CCN(Cc2ccc(NC(=O)c3cncc(C#Cc4cnc5ccc(OCC6COC6)nn45)c3)cc2C(F)(F)F)CC1` is 4.9-fold lower in TGI: 3530 nM for the first, 726 nM for the second.

Going from `ClCCN(CCCl)c1ccc(OCc2ccccc2)cc1` to `C#CCN(C)CCCOc1ccc(NCc2ccc(C(=O)NO)cc2)cc1Cl`, the TGI falls from 16700 nM to 8140 nM (2.1-fold).

First: CN1CCN(C(=O)OCc2nc3c(N4CCOCC4)nc(-c4ccccc4)nc3n2C)CC1
Second: CC[n+]1c(/C=C/c2ccc(N3CCCC3)cc2)cccc1/C=C/c1ccc(N2CCCC2)cc1
The TGI of the first is 10-fold higher: 2020 nM for the first, 196 nM for the second.

Compared with `COc1c(O)cc2c(c1CC=C(C)C)OC(=O)c1c(cc(O)c(CC=C(C)C)c1O)O2`, `Oc1c(CCl)cc(Cl)cc1Cc1cc(Cl)cc(Cc2cc(Cl)cc(CCl)c2O)c1O` is 1.6-fold higher in TGI: 8210 nM for the first, 13100 nM for the second.

First: COc1ncnn2ccc(-c3cnc4nc(C)n(Cc5nnc(C(C)F)o5)c4c3)c12 (stereo unspecified)
Second: CO[C@@H]1[C@H](N(C)C(=O)c2ccccc2)C[C@@H]2O[C@]1(C)n1c3ccccc3c3c4c(c5c6ccccc6n2c5c31)C(=O)NC4=O
The TGI of the first is lower: 309 nM for the first, over 100000 nM for the second.

Compared with `COC(=O)CC12CC(NC(=O)c3csc([C@@H](C[C@H](C(C)C)N(C)C(=O)[C@@H](NC(=O)[C@H]4CCCCN4C)C(C)C)OC(C)=O)n3)(C1)C2`, `Nc1n[nH]c2ccc([C@H]3[C@@H]4C5CCC(C5)[C@@H]4c4c(ccc5[nH]ncc45)N3S(=O)(=O)C3CC3)cc12` (stereo partly specified) is lower in TGI: over 33300 nM for the first, 1700 nM for the second.

First: CCN1C2=C(SC(=S)C1=C1SC(C(=O)c3ccccc3)=C(C(=O)c3ccccc3)S1)SC(=Nc1ccccc1)C2=O
Second: Cc1ccc([I+]c2ccc(C)cc2)cc1
The TGI of the first is higher: over 100000 nM for the first, 40000 nM for the second.

For `COc1cccc(Nc2ncnn3ccc(CN4CC[C@@H](N)[C@H](O)C4)c23)c1`, the GI50 was 33.3 nM and 20.1 nM.
With `Nc1ncnc2occ(-c3ccc(NC(=O)Nc4cc(C(F)(F)F)ccc4F)cc3)c12` the GI50 was 4460 nM and 3900 nM.

For `COc1cccc(Nc2ncnn3ccc(CN4CC[C@@H](N)[C@H](O)C4)c23)c1`, the TGI was 790 nM and 175 nM.
With `Nc1ncnc2occ(-c3ccc(NC(=O)Nc4cc(C(F)(F)F)ccc4F)cc3)c12` the TGI was 12400 nM and 11800 nM.
